We go through two molecules from patent publication US20130236527A1, “LICORICE LOLLIPOP THAT INHIBITS DENTAL CARIES FORMATION” (INTELLIHERB, LLC, priority 2008, published 2013).

For one assay, the system named is S. mutans. The experiment in a line: anti-S. mutans bioactivity examination of extract batches. The assay is classed as cell-based, Streptococcus mutans. The text has this:
In addition to chemical analysis, all batches, or statistically relevant samples of continuous production processes (e.g., 1/3600 candies; or 1/5000 candies; or 1/10,000 candies or the like) or statistically relevant samples of candy production batches (e.g., 1/10 batches; or 1/20 batches; or 1/50 batches), are examined for bioactivity. While the pure compound of glycyrrhizol A has anti-S. mutans activity at 1 microgram per ml, the mixed compound usually has anti-S. mutans activity at 10-30 microgram per ml.

The test system of the next assay is bacterial adherence. Nature of the assay: inhibition of bacterial adherence / dental caries formation.

Take `COc1c(CC=C(C)C)c(O)cc2c1-c1oc3cc(O)c(CC=C(C)C)cc3c1CO2` [Glycyrrhizol A]: in the assay with S. mutans, the “anti-S. mutans activity at (concentration)” value is reported as 1 microgram per ml. On to `CC1(C)[C@@H](O[C@H]2O[C@H](C(=O)O)[C@@H](O)[C@H](O)[C@H]2O[C@@H]2O[C@H](C(=O)O)[C@@H](O)[C@H](O)[C@H]2O)CC[C@]2(C)[C@H]3C(=O)C=C4[C@@H]5C[C@@](C)(C(=O)O)CC[C@]5(C)CC[C@@]4(C)[C@]3(C)CC[C@@H]12` [glycyrrhizin], for which, in the assay on bacterial adherence, the “inhibition of dental caries formation by inhibiting bacterial adherence” value is “can inhibit formation of dental caries by inhibiting bacterial adherence”.
